Test results reported in a melting point compilation (Tetko et al.; mined from patent text by program, amines drawn as free bases though some values may be those of a salt).

Row | Structure (SMILES) | melting point [°C]
1 | COc1cc(C)c(C=O)c(OC)c1OC | 55 to 57
2 | Cc1nc2ccc3c(c2o1)C(=O)CC3 | 106 to 107
3 | O=C1CC([N+](=O)[O-])([N+](=O)[O-])CO1 | 100 to 102
4 | FC(F)(F)c1cc(Oc2cc(Oc3ccc(Cl)c(C(F)(F)F)c3)ncn2)ccc1Cl | 111
5 | Cn1cncc1C(O)(c1ccc(Cl)cc1)c1ccc2c(c1)C(c1cccc(Cl)c1)Nc1nnnn1-2 (centres undefined) | 212
6 | CCC1(C)CCC(N)=CC1=O (centres undefined) | 99 to 100
7 | CCOC(=O)c1ncn2c1CN(C)C(=O)c1c(Cl)cccc1-2 | 229 to 230
8 | Cn1nc(-c2cccnc2)c2c(C(F)(F)F)cc(-c3cccc(CN4CCOCC4)c3)nc21 | 155
9 | COc1cc2c(c(Cl)c1Cl)C(=O)CCC2 | 132
10 | CC(C)(C)c1nc2cc(N3CCOCC3)c(N=C=S)cc2s1 | 141 to 143
11 | Cc1cc(CCCCCOc2c(C)cc(-c3nc(C)no3)cc2C)on1 | 54 to 56
12 | COC(=O)c1c(NC(C)C)cccc1S(=O)(=O)NC(C)(C)C | 110 to 112
13 | CNC(=C[N+](=O)[O-])NOCCCc1csc(NC(=N)N)n1 | 144 to 146
14 | Cc1noc(NS(=O)(=O)c2ccccc2-c2ccc(-c3ncco3)cc2-c2ncco2)c1C | 108 to 113
15 | COc1ccc(C=O)cc1C(C)(C)C | 52
16 | CNC(=O)OC1Oc2ccc(OS(C)(=O)=O)cc2C1(C)C (centres undefined) | 126 to 127
17 | CCOC(=O)c1[nH]c(CC)c(CC(C)C)c1C | 94 to 96
18 | OC1(c2cccc(Cl)c2)CCN(CCCc2nnc3n2CCCCC3)CC1 | 146 to 148
19 | CC(C)Nc1nc2cc(F)c(F)cc2n1[C@H]1O[C@@H](CO)[C@H](O)[C@@H]1O | 156 to 158
20 | CCOc1nsc(S(C)(=O)=O)c1Cl | 85 to 87
21 | CC(=O)CCSc1cc(C(C)(C)C)c(O)c(C(C)(C)C)c1 | 79 to 81
22 | Cc1cc(Cl)cc2[nH]c(=O)c(=O)[nH]c12 | > 250
23 | COc1cc2nc(C)nc(Cl)c2cc1OC | 182 to 184
24 | CCCCN(c1nc(Cl)nc(N(CCCC)C2CC(C)(C)N(OC3CCCCC3)C(C)(C)C2)n1)C1CC(C)(C)N(OC2CCCCC2)C(C)(C)C1 | 75 to 82

Row | Structure (SMILES) | melting point [°C]
25 | COc1cnc(Cl)c(C(N)=O)c1 | 129 to 132
26 | COC(=O)c1ccc(C(O)c2cc3cc(C(F)(F)F)ccc3n2S(=O)(=O)c2ccc3c(c2)N(C)CCO3)cc1 (centres undefined) | 80
27 | CC[C@H]1[C@@H](O)C(F)(F)C(=O)N1c1ccc(C#N)c(OC)c1 | 161 to 164
28 | Cc1cc(C2CC2)nc(NC(=O)NS(=O)(=O)c2cccc3c2OS(=O)(=O)C(C)C3)n1 (centres undefined) | 216 to 217
29 | OCc1cc(-c2ccc3nnn(Cc4ccc5ncccc5c4)c3n2)cs1 | 188 to 191
30 | N#CC(=CNC1CC1)C(=O)c1cc(F)c(F)c(F)c1F | 88 to 89
31 | CC(C)c1cc(CO)cc(C(C)C)c1NC(=O)CN1CCN(CCSc2nc3cccc(C(F)(F)F)c3o2)CC1 | 146 to 148
32 | COc1ccc2cc(-c3ccncn3)ccc2n1 | 164 to 165
33 | COc1ccc2c(c1)C(c1ccc([N+](=O)[O-])cc1)=Nn1c(C)nnc1C2 | 192 to 194
34 | O=c1[nH]c(=O)n(C2CC2)c2c(OC(F)F)c(F)ccc12 | 215 to 221
35 | O=C(Nc1ccc(Br)cn1)C(F)(F)F | 70 to 72
36 | CCOC(=O)C(C)(C)Oc1ccc(CCCC(=O)NN(Cc2cc(F)cc(F)c2)C(N)=O)cc1 | 108 to 109
37 | N=c1sc2cc(OC(F)(F)F)ccc2n1CCS | 110
38 | Cc1c(SCCCSc2sccc2[N+](=O)[O-])ccnc1CO | 134 to 138
39 | NCCCP(=O)(O)Cc1ccccc1 | 69 to 72
40 | Clc1ccc(NNc2ccc(Cl)cc2)cc1 | 120 to 121
41 | Cn1ncnc1COc1nc2c(cc1-c1cccc(F)c1)nnn2-c1c(F)cccc1F | 137 to 140
42 | COc1ccc(N(C(=O)CN2C(=O)C(Cc3cc(C)nn3Cc3ccccc3)C(=O)N(c3ccccc3)c3ccccc32)C(C)C)cc1 (centres undefined) | 117 to 120
43 | Cc1ccc2nc(N3CCN(c4c(Cl)cncc4Cl)CC3)[nH]c2c1 | 251 to 254
44 | COc1cc(C(=O)C(Br)CCC2CCCCC2)c(OC)cc1Cl (centres undefined) | 73 to 74
45 | CCCCCCCCCCCCCCCC(=O)OCC(COCc1ccccc1)OC(=O)CCCCCCCCCCCCCCC (centres undefined) | 40 to 42
46 | CCC1(C(=O)Nc2ccc(OC)cc2)CCCCC1C (centres undefined) | 107
47 | Cc1cc(C)nc(COc2ccc3c(c2)c(SC(C)(C)C)c(CC(C)(C)C(=O)O)n3Cc2ccc(Cl)cc2)n1 | 213 to 215
48 | COc1c(Cl)ccc(-c2cc(N)c(Cl)c(C(=O)NOCCC#N)n2)c1F | 191 to 194

Now from value to compound:

Row | melting point [°C] | Structure (SMILES)
49 | 66 to 70 | CN(Cc1ccccc1)c1cc(Cl)c(C=O)c(Cl)c1
50 | 207 | CCCC1=C(C(=O)OCC)C(c2cccc(F)c2F)c2c[nH]nc2N1 (centres undefined)
51 | 242 | Cc1ccc(NC(=O)c2ccc(C(=O)Nc3ccccc3N)s2)cc1Nc1nc(-c2cccnc2)cs1
52 | 290 to 295 | COc1ccc(C(=O)NC(=O)Nc2cc3c(cc2F)/C(=C/c2ccc[nH]2)C(=O)N3)cc1
53 | 295 to 297 | CCOc1ccccc1-c1nc2c(C(N)=O)ccnc2c(=O)[nH]1
54 | 132 to 134 | O=C1c2cc(Cl)c(Cl)cc2C(=O)N1CCN1CCC(c2noc3cc(F)ccc23)CC1
55 | 196 to 199 | C(=C\c1cc(/C=C/c2c[nH]c3ccccc23)n[nH]1)/c1ccc(OCc2ccccn2)cc1
56 | 143 to 145 | COc1ccc2c(C=O)c(OCc3ccccc3)ccc2c1C(F)(F)F
57 | 180 | O=C(c1cccnc1)c1cc(-c2ccccc2)c(N2CCOCC2)s1
58 | 180 | Cc1ccccc1Oc1cccc(NC(=O)c2ccn3c2CSC3c2cccnc2)c1 (centres undefined)
59 | 101 to 104 | Cc1ncccc1C(C#N)N1CCN(C(=O)CC(NC(=O)c2cccc(OCc3ccc4ccccc4n3)c2)c2ccccc2)CC1 (centres undefined)
60 | 304 to 306 | O=c1[nH]c2cc(Cl)ccc2c(O)c1-c1cccc(Cc2ccccc2)c1
61 | > 260 | Cc1ccc(C(NC(=O)[C@H](CCC(=O)O)NC(=O)c2cc3ccccc3[nH]2)c2ccc(C)cc2)cc1
62 | 151 to 152 | CCc1nc2c(C)cc(C)nc2n1Cc1ccc(Nc2ccccc2)cc1
63 | > 250 | CS(=O)(=O)Nc1cc2oc(C(N)=O)cc(=O)c2cc1Oc1ccccc1
64 | 125 to 126 | O=C(c1ccccc1)c1cc([N+](=O)[O-])ccc1O
65 | 185 | O=C(O)Cc1csc(N=C2SC[C@@H]3Cc4ccccc4CN23)n1
66 | 55 | COC(=O)CCCc1cc2nc(Cl)ccc2n1S(=O)(=O)c1ccc2ncsc2c1
67 | 178 to 180 | Cc1c(NCCN2C(=O)c3ccccc3C2=O)c(=O)n(C)c(=O)n1C
68 | 128 | Cc1cc(O)c(SCc2ccccc2)c(=O)o1
69 | 95 to 97 | Cc1cc(SCC#Cc2ccccc2C(F)(F)F)ccc1OCC(=O)O
70 | 110 to 111 | CC(C)(C)OC(=O)NCc1ccc([N+](=O)[O-])cc1
71 | 155 to 156 | CCOC(=O)C(c1c(F)cc(C#N)cc1F)c1cc(C)c(C(=O)c2ccc(Cl)cc2)n1C (centres undefined)
72 | 267 to 268 | CNC(=O)c1ccccc1Nc1nc(Nc2ccc3c(c2)CNC(=O)CCN3)ncc1Cl
73 | 175 to 176 | Cc1oc(-c2ccccc2)nc1CC=Cc1ccc(CCC2OC(=O)NC2=O)cc1 (centres undefined)
74 | 97 to 99 | O=C1NCC(c2ccccc2)N1CCCS (centres undefined)

Row | melting point [°C] | Structure (SMILES)
75 | 149 to 150 | O=C1c2ccccc2C(=O)C1(CCN1CCC(c2noc3cc(F)ccc23)CC1)c1ccccc1
76 | 161 | Cc1ccccc1S(=O)(=O)n1c(CCCC(=O)O)cc2nc(Cl)ccc21
77 | 74 to 76 | CC(C)=CCCC(C)=CCS(=O)c1ccc2ccccc2c1 (centres undefined)
78 | 250 to 251 | COc1cccc(C(=O)Nc2ccc(CN3C(=O)[C@H]4CCC[C@H]4N(C(=O)CN4C(=O)c5ccccc5C4=O)c4ccccc43)cc2)c1 (relative stereo)
79 | 181 to 183 | O=C(O)n1ccc2c(OCc3ccccc3)c(Cc3ccccc3)ccc21
80 | 211 to 213 | COC(C(N)=O)(C(N)=O)c1ccc(Cl)c(Cl)c1
81 | 149 to 150 | COC(=O)Cc1ccccc1NC(=S)NCN
82 | 257 | NC(=O)Nc1cccc2c1C(=O)c1c-2n[nH]c1-c1ccc(N2CCNCC2)cc1
83 | 123 to 124 | COc1ccc2c(c1)cc(C=O)n2S(=O)(=O)c1ccccc1
84 | 174 to 175 | CC(NC(=O)Cc1cc(F)cc(F)c1)C(=O)NC1C(=O)N(C)Cc2ccccc21 (centres undefined)
85 | 39 to 41 | c1ccc(CNn2cccc2)cc1
86 | 116 to 118 | OCC1COC2(CC(c3ccccc3)SC(c3ccccc3)C2)O1 (centres undefined)
87 | 194 to 197 | CCc1cn(C2CC(O)C(CNC(=O)C(C)Cc3c(Cl)cccc3Cl)O2)c(=O)[nH]c1=O (mixture of isomers)
88 | 172 to 175 | O=C(O)C1=Cc2cccc(-c3ccccc3)c2OC1C(F)(F)F (centres undefined)
89 | 144 to 146 | CC(=O)NCCn1ccc2c1-c1cc(Cl)ccc1CC2
90 | 188 to 190 | Cc1cc2c3c(c1)c(=O)c(C(=O)O)cn3C1CCCCC21 (centres undefined)
91 | 78 to 80 | CC(=O)OCC(C)(C)C(=O)N(O)Cc1ccccc1Cl
92 | 87 | OC(Cn1cncn1)c1ccc(Cl)cc1Cl (centres undefined)
93 | 128 to 133 | CC(C(=O)O)N(C(=O)OC(C)(C)C)c1ccc(N)cc1 (centres undefined)
94 | 254 to 256 | O=C(O)CN1C(=O)C(=Cc2ccccc2)SC1=S
95 | 154 to 155 | CN/C(=C1/Sc2ccccc2C1=O)c1ccccc1
96 | 213 | CCCS(=O)(=O)n1ccc2ccc(N=C3NCCN3)cc21
97 | 149 to 150 | O=C(O)[C@H](Cc1ccccc1)NC(=S)Cc1ccc([N+](=O)[O-])cc1
98 | 93 to 94 | O=c1oc(-c2cccc(-c3ccccc3)c2)cc(O)c1SCCc1ccccc1
99 | 178 to 179 | COc1cc2nc(Cl)nc(N3CCN(C(=O)Nc4ccc(Oc5ccccc5)cc4)CC3)c2cc1OC
